Holding throughout (assay type): biochemical
Experiment [1] has as its target T1, human JAK2 (Homo sapiens, UniProt O60674).
T1 construct: The kinase domain of human JAK2 was amplified; GST (N); made in house; host or cells: Sf9 insect cells (baculovirus)
Put plainly: Alphascreen tyrosine kinase enzyme assay, JAK2 kinase domain. To be noted: read-out: JAK2 IC50_nM. The method, boiled down:
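JAK2 kinase domain expressed in baculovirus/Sf9 and glutathione-affinity purified. Compounds (final […]) pre-incubated 20 min with enzyme in 10 mM HEPES pH 7.5, MgCl2, NaCl, vanadate, 0.1% Tween 20.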

Experiment [2] has as its target T2, Bmx(h) (Homo sapiens, UniProt P51813).
T2 construct: purchased Upstate Biotechnology (Dundee, UK), KinaseProfiler service
T2 sequence (P51813 1-675): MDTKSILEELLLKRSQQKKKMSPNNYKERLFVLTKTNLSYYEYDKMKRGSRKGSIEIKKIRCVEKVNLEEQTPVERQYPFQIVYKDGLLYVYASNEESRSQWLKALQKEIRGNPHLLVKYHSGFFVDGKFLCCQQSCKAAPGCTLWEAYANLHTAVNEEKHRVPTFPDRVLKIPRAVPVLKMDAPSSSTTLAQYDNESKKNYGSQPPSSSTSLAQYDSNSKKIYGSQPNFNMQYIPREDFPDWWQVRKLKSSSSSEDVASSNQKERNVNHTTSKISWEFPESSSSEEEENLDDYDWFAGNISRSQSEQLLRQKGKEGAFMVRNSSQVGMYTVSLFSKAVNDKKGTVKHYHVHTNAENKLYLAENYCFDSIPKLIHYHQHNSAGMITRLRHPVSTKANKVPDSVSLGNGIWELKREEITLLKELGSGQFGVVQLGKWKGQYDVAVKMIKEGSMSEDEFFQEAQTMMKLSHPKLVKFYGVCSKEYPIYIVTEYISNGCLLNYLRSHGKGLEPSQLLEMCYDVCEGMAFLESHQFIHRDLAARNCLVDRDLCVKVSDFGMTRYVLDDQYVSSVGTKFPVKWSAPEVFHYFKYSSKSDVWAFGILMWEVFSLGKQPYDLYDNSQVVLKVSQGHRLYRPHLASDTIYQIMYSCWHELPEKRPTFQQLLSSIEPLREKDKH
Description: Upstate KinaseProfiler enzyme assay, Bmx. To be noted: 500 nM compound; read-out: Percent inhibition at 500 nM Bmx(h). A digest of the protocol:
(§1)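 Substrates are dissolved and diluted to working stocks in de-ionised water. Enzymes go into the assay from 10× working dilutions prepared in pH 7.0 MOPS buffer (20 mM) containing BSA 1 mg/ml, glycerol 5%, Brij-35 0.01%, β-mercaptoethanol 0.1% and EDTA 1 mM.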

The target in experiment [3] is T3, Blk(m) (Mus musculus, UniProt P16277).
T3 construct: purchased Upstate Biotechnology (Dundee, UK), KinaseProfiler service
Description: Upstate KinaseProfiler enzyme assay, Blk. To be noted: 500 nM compound; read-out: Percent inhibition at 500 nM Blk(m). The method, boiled down:
as §1

For experiment [4], the target named is T4, Flt 1(h) (Homo sapiens, UniProt P17948).
T4 construct: purchased Upstate Biotechnology (Dundee, UK), KinaseProfiler service
Description: Upstate KinaseProfiler enzyme assay, Flt 1. To be noted: 500 nM compound; read-out: Percent inhibition at 500 nM Flt 1(h). The protocol:
(§2) Further enzyme assays were conducted at Upstate Biotechnology (Dundee, UK) in the KinaseProfiler™ Assay system.
(§3) The general protocol is as follows. All kinases are pre-diluted to a 10× working concentration prior to addition into the assay. The composition of the dilution buffer for the kinases is 20 mM MOPS pH 7.0, 1 mM EDTA, 0.1% β-mercaptoethanol, 0.01% Brij-35, 5% glycerol, 1 mg/ml BSA. All substrates are dissolved and diluted to working stocks in de-ionised water.

The target of experiment [5] is T5, Flt 4(h) (Homo sapiens, UniProt P35916).
T5 construct: purchased Upstate Biotechnology (Dundee, UK), KinaseProfiler service
Put plainly: Upstate KinaseProfiler enzyme assay, Flt 4. As to conditions: 500 nM compound; read-out: Percent inhibition at 500 nM Flt 4(h). On the procedure:
as §2, §3

Experiment [6] addresses T6, KDR(h) (Homo sapiens, UniProt P35968).
T6 construct: purchased Upstate Biotechnology (Dundee, UK), KinaseProfiler service
Description: Upstate KinaseProfiler enzyme assay, KDR. To be noted: 500 nM compound; read-out: Percent inhibition at 500 nM KDR(h). The method, boiled down:
as §1

Experiment [7] addresses T7, BTK(h) (Homo sapiens, UniProt Q06187).
T7 construct: purchased Upstate Biotechnology (Dundee, UK), KinaseProfiler service
Put plainly: Upstate KinaseProfiler enzyme assay, BTK. To be noted: 500 nM compound; read-out: Percent inhibition at 500 nM BTK(h). A digest of the protocol: as §1

T6 sequence (P35968 20-1356): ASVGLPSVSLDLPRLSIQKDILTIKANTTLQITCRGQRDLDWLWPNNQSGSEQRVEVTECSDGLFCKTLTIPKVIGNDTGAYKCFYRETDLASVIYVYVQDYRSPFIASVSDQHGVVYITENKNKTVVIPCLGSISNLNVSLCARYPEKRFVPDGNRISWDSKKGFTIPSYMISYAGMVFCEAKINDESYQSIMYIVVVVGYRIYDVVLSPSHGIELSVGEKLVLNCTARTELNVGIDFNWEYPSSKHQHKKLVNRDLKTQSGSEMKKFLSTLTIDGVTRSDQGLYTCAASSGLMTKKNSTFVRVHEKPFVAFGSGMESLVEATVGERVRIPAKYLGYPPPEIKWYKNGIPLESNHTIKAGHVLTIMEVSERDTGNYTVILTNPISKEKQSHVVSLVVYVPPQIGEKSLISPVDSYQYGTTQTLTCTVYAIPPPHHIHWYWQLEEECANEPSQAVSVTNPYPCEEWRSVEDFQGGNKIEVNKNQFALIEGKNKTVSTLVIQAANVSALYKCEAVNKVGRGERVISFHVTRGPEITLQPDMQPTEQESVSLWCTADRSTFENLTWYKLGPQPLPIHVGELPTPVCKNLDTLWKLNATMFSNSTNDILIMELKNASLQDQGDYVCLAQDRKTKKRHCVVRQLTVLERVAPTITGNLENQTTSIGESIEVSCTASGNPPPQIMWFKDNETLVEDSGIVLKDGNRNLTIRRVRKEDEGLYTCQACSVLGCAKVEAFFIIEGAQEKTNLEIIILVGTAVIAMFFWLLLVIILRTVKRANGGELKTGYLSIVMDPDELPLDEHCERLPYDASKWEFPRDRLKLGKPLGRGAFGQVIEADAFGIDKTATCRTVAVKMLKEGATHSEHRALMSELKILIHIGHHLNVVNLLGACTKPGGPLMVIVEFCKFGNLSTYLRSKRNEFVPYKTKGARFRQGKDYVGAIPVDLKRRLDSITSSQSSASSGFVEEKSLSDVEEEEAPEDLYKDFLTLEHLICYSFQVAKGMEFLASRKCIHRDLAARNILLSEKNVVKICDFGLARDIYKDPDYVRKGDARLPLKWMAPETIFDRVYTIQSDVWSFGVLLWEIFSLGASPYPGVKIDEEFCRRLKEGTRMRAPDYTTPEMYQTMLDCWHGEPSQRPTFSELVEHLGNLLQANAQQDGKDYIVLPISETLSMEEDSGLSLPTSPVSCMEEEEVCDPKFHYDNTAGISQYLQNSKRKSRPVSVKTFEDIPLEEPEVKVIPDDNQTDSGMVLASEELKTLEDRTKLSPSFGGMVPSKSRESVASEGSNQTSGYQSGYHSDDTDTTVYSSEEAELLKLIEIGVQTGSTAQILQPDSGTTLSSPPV
T7 sequence (Q06187 whole entry): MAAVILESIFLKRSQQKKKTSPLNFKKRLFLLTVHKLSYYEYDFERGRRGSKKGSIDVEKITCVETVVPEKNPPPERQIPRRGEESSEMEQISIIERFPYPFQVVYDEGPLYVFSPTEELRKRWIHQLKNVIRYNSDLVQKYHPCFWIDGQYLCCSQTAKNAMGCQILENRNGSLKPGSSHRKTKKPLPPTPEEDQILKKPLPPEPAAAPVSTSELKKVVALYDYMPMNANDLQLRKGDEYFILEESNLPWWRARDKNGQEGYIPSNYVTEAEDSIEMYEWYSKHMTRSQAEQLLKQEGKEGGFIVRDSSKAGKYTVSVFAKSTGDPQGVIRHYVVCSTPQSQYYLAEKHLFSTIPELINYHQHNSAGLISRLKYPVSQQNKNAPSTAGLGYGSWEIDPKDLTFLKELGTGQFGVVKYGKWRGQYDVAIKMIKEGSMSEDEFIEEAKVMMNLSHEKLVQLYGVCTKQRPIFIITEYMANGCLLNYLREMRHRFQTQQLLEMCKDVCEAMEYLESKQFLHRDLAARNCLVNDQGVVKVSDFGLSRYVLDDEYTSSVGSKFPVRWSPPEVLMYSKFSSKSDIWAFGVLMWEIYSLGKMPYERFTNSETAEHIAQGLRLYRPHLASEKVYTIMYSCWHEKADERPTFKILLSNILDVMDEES
T4 sequence (P17948 27-1338): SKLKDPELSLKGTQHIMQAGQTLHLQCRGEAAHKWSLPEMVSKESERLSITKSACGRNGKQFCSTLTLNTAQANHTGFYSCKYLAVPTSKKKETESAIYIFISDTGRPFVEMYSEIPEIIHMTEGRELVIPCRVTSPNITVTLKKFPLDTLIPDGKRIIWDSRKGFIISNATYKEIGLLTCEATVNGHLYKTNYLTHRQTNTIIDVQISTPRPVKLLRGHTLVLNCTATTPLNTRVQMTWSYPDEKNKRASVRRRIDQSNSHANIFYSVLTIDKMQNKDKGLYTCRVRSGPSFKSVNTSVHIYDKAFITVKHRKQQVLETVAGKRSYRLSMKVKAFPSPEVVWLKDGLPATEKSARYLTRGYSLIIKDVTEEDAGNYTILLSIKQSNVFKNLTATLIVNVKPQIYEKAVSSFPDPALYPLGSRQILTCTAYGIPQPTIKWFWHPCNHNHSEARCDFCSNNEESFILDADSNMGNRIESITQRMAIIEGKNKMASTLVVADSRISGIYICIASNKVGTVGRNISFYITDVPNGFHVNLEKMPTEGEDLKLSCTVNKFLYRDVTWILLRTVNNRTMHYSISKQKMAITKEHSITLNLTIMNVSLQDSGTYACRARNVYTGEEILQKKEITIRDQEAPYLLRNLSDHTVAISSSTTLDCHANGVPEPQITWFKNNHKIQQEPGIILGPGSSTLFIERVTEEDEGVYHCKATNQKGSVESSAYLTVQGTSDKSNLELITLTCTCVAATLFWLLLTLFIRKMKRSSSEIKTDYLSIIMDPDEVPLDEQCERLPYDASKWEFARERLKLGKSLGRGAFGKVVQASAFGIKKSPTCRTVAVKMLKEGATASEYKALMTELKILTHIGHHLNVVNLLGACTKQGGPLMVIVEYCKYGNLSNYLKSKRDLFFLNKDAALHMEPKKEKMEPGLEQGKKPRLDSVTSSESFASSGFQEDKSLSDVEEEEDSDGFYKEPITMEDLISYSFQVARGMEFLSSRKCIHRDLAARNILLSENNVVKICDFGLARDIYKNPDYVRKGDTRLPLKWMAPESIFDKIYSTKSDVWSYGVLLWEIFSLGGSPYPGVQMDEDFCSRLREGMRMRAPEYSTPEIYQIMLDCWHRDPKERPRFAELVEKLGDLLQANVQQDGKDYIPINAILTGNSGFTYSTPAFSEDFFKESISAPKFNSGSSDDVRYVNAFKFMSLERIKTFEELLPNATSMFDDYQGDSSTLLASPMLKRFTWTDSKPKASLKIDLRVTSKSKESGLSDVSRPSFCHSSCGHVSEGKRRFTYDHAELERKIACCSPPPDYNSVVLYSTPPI
T3 sequence (P16277 whole entry): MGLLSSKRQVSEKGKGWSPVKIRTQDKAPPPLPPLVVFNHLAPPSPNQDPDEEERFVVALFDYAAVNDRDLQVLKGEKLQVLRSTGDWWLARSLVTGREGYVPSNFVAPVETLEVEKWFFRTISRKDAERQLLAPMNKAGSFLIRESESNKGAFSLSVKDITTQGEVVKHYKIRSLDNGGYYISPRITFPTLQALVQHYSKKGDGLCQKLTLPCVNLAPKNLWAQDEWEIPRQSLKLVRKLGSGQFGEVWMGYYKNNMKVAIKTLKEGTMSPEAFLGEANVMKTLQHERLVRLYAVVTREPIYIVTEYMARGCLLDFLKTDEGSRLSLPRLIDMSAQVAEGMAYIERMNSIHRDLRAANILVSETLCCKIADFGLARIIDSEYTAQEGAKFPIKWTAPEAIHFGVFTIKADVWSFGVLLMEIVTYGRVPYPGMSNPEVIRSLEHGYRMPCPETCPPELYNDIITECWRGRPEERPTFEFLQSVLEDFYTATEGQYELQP
T1 sequence (O60674 849-1124 limits assumed): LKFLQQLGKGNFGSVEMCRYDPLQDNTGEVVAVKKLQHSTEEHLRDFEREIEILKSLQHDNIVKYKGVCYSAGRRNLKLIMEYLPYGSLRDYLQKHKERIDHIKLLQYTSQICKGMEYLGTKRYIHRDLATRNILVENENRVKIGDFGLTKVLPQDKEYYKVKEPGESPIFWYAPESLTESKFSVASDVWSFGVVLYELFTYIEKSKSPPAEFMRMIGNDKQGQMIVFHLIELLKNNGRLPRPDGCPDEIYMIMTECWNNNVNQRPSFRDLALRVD

Turning to `Cc1cc(N)ccc1Sc1nc(Nc2ccc(N3CCOCC3)cc2)ncc1C` [Compound 162, 4-(4-ao-2-methylphenylthio)-5-methyl-N-(4-morpholinophenyl)pyrimidin-2-ae], in experiment [1], the IC50 is under 1000 nM. The inhibition at 0.5 µM in experiment [2] stood at 55%; in experiment [3], 50%; in experiment [4] it was 82%; in experiment [5] it was 98%; in experiment [6], 95%.
Turning to `N#Cc1nnnn1Cc1ccc(Sc2ccnc(Nc3ccc(N4CCOCC4)cc3)n2)cc1` [Compound 155, 1-(4-(2-(4-morpholinophenylao)pyrimidin-4-ylthio)benzyl)-1H-tetrazole-5-carbonitrile], in experiment [1], the IC50 is over 1000 nM. For the same compound, the inhibition at 0.5 µM in experiment [2] came to 86%; in experiment [3], 40%; in experiment [7], 81%; in experiment [4] it was 74%; in experiment [5], 99%; in experiment [6] it was 98%.
As for `C=CC(=O)Nc1ccc(Sc2nc(Nc3ccc(OCCCN(CC)CC)cc3)ncc2C)cc1` [Compound 291, N-(4-(2-(4-(3-(diethylao)propoxy)phenylao)-5-methylpyrimidin-4-ylthio)phenyl)acrylamide], the IC50 in experiment [1] is over 1000 nM. Further, the inhibition at 0.5 µM in experiment [2] came to 99%; in experiment [3] it was 99%; in experiment [7], 95%; in experiment [4], 100%; in experiment [5] it was 100%; in experiment [6] it was 96%.
Turning to `C=CC(=O)Nc1ccc(Sc2nc(Nc3ccc(N4CCC(CO)CC4)cc3)ncc2C)cc1` [Compound 286, N-(4-(2-(4-(4-(hydroxymethyl)piperidin-1-yl)phenylao)-5-methylpyrimidin-4-ylthio)phenyl)acrylamide], in experiment [1], the IC50 is over 1000 nM. The inhibition at 0.5 µM amounted to 95% in experiment [2]; 88% in experiment [3]; 74% in experiment [7]; 98% in experiment [4]; 100% in experiment [5]; 94% in experiment [6].
`C=CC(=O)Nc1ccc(Sc2nc(Nc3ccc(N4CCN(C)CC4)cc3)ncc2C)cc1` [Compound 239, N-(4-(5-methyl-2-(4-(4-methylpiperazin-1-yl)phenylao)pyrimidin-4-ylthio)phenyl)acrylamide]: in experiment [1], the IC50 was under 1000 nM. Besides, the inhibition at 0.5 µM in experiment [2] turned out to be 99%; in experiment [3], 99%; in experiment [7], 97%; in experiment [4], 100%; in experiment [5], 100%; in experiment [6], 96%.
`CC#CC(=O)Nc1ccc(Sc2ccnc(Nc3cccc(N4CCOCC4)c3)n2)cc1` [Compound 233, N-(4-(2-(3-morpholinophenylao)pyrimidin-4-ylthio)phenyl)but-2-ynamide]: the IC50 in experiment [1] was over 1000 nM. The inhibition at 0.5 µM stood at 89% in experiment [2]; 85% in experiment [3]; 99% in experiment [4]; 99% in experiment [5]; 98% in experiment [6].
Consider `C=CC(=O)Nc1ccc(Sc2ccnc(Nc3ccc(N4CCN(C)CC4)cc3)n2)cc1` [Compound 238, N-(4-(2-(4-(4-methylpiperazin-1-yl)phenylao)pyrimidin-4-ylthio)phenyl)acrylamide], for which the IC50 in experiment [1] was over 1000 nM. The inhibition at 0.5 µM amounted to 90% in experiment [2]; 99% in experiment [3]; 97% in experiment [4]; 99% in experiment [5]; 95% in experiment [6].
As for `C=CC(=O)Nc1ccc(Sc2nc(Nc3cccc(CO)c3)ncc2C)cc1` [Compound 280, N-(4-(2-(3-(hydroxymethyl)phenylao)-5-methylpyrimidin-4-ylthio)phenyl)acrylamide], in experiment [1], the IC50 was over 1000 nM. Moreover, the inhibition at 0.5 µM in experiment [2] turned out to be 98%; in experiment [3], 99%; in experiment [7], 97%; in experiment [4], 100%; in experiment [5] it was 100%; in experiment [6], 97%.
For the compound `C=CC(=O)Nc1ccc(Sc2nc(Nc3cccc(OC)c3)ncc2C)cc1` [Compound 235, N-(4-(2-(3-methoxyphenylao)-5-methylpyrimidin-4-ylthio)phenyl)acrylamide], the IC50 in experiment [1] was over 1000 nM. Also, the inhibition at 0.5 µM in experiment [2] came to 79%; in experiment [3], 86%; in experiment [4] it was 86%; in experiment [5], 99%; in experiment [6], 96%.
Turning to `C=CC(=O)Nc1ccc(Sc2nc(Nc3ccc(NS(C)(=O)=O)cc3)ncc2C)cc1` [Compound 285, N-(4-(5-methyl-2-(4-(methylsulfonamido)phenylao)pyrimidin-4-ylthio)phenyl)acrylamide], in experiment [1], the IC50 is over 1000 nM. In addition, the inhibition at 0.5 µM in experiment [2] stood at 98%; in experiment [3], 97%; in experiment [7] it was 91%; in experiment [4], 95%; in experiment [5], 98%; in experiment [6], 94%.
In the case of `C=CC(=O)Nc1ccc(Sc2nc(Nc3cccc(N4CCOCC4)c3)ncc2F)cc1` [Compound 267, N-(4-(5-fluoro-2-(3-morpholinophenylao)pyrimidin-4-ylthio)phenyl)acrylamide], in experiment [1], the IC50 was over 1000 nM. The inhibition at 0.5 µM in experiment [2] was 89%; in experiment [3], 96%; in experiment [7], 94%; in experiment [4], 100%; in experiment [5], 100%; in experiment [6], 94%.
With `Cc1cnc(Nc2ccc(N3CCOCC3)cc2)nc1Sc1c(C)cc(N)cc1C` [Compound 165, 4-(4-ao-2,6-dimethylphenylthio)-5-methyl-N-(4-morpholinophenyl)pyrimidin-2-ae], the IC50 in experiment [1] is over 1000 nM. In addition, the inhibition at 0.5 µM in experiment [2] was determined as 40%; in experiment [3], 0%; in experiment [4], 43%; in experiment [5], 99%; in experiment [6], 86%.
On to `C=CC(=O)Nc1ccc(Sc2nc(Nc3ccc(N4CCOCC4)cc3)ncc2C)c(C)c1` [Compound 163, N-(3-methyl-4-(5-methyl-2-(4-morpholinophenylao)pyrimidin-4-ylthio)phenyl)acrylamide], for which the IC50 in experiment [1] is over 1000 nM. Further, the inhibition at 0.5 µM was found to be 85% in experiment [2]; 95% in experiment [3]; 83% in experiment [4]; 99% in experiment [5]; 97% in experiment [6].
Take `C=CC(=O)Nc1ccc(Sc2nc(Nc3cccc(N4CCOCC4)c3)ncc2C)cc1` [Compound 237, N-(4-(5-methyl-2-(3-morpholinophenylao)pyrimidin-4-ylthio)phenyl)acrylamide]: in experiment [1], the IC50 is over 1000 nM. Further, the inhibition at 0.5 µM in experiment [2] came out at 92%; in experiment [3] it was 96%; in experiment [4] it was 98%; in experiment [5], 99%; in experiment [6], 97%.
